According to patent US11802111B2, “Cyclobutyl amide monoacylglycerol lipase modulators” (Janssen Pharmaceutica NV, priority 2020, dated 2023):

The compounds below were run against human MGL from HeLa cells (Homo sapiens (Human), UniProt Q99685) (assay: MGL in vitro activity assay ([glycerol-1,3-3H]-oleoyl glycerol hydrolysis, activated carbon filtration)). Conditions: 300 nM [Glycerol-1,3-3H]-oleoyl glycerol, one hour.
Chain of human MGL from HeLa cells (Q99685 whole entry): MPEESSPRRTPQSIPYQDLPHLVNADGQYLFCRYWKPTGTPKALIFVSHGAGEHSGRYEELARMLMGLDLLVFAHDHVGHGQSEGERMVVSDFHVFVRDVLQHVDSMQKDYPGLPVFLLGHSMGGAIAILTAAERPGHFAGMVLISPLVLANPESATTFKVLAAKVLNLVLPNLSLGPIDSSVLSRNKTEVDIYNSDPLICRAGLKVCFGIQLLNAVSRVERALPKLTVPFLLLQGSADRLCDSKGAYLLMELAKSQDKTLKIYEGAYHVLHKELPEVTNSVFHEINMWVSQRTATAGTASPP
Type: biochemical
In short: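 Activity measured as tritium in the flow-through after activated carbon filtration of a 1 h reaction containing 300 nM 3H-oleoyl glycerol, compound and HeLa-derived human MGL. Compounds screened at 10 μM; IC50 series start at an empirically chosen highest concentration.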
Work on `C[C@]1(O)C[C@@H](C(=O)N2CC3(CCC(Oc4ccc(C(F)(F)F)cn4)CC3)C2)C1` [Example 417, ((1s,3s)-3-Hydroxy-3-methylcyclobutyl)(7-((5-(trifluoromethyl)pyridin-2-yl)oxy)-2-azaspiro[3.5]nonan-2-yl)methanone] yielded an IC50 of 29 nM.
With `Cn1cc(C(F)(F)F)c2ccc(CC3CC4(C3)CN(C(=O)[C@H]3C[C@@](C)(O)C3)C4)nc21` [Example 296, ((1s,3s)-3-Hydroxy-3-methylcyclobutyl)(6-((1-methyl-3-(trifluoromethyl)-1H-pyrrolo[2,3-b]pyridin-6-yl)methyl)-2-azaspiro[3.3]heptan-2-yl)methanone] the IC50 was 0.29 nM.
Compound `CC(C)(C)c1ccnc(CC2CC3(C2)CN(C(=O)[C@H]2C[C@@](C)(O)C2)C3)c1` [Example 190, (6-((4-(tert-Butyl)pyridin-2-yl)methyl)-2-azaspiro[3.3]heptan-2-yl)((1s,3s)-3-hydroxy-3-methylcyclobutyl)methanone] has an IC50 of 73 nM.
Work on `COc1ccc(CC2CC3(C2)CN(C(=O)[C@H]2C[C@@](C)(O)C2)C3)c(C(F)F)c1` [Example 274, (6-(2-(Difluoromethyl)-4-methoxybenzyl)-2-azaspiro[3.3]heptan-2-yl)((1s,3s)-3-hydroxy-3-methylcyclobutyl)methanone] yielded an IC50 of 6.2 nM.
`Cc1ccc(OC2CCC3(CC2)CN(C(=O)[C@H]2C[C@](O)(C(F)F)C2)C3)nc1C(F)(F)F` [Example 453, ((1s,3s)-3-(Difluoromethyl)-3-hydroxycyclobutyl)(7-((5-methyl-6-(trifluoromethyl)pyridin-2-yl)oxy)-2-azaspiro[3.5]nonan-2-yl)methanone] gave an IC50 of 19 nM.
With `C[C@]1(O)C[C@@H](C(=O)N2CC3(CC[C@H](c4ccc(C5CC5)cc4)C3)C2)C1` [Example 50, ((S)-6-(4-Cyclopropylphenyl)-2-azaspiro[3.4]octan-2-yl)((1s,3R)-3-hydroxy-3-methylcyclobutyl)methanone] the IC50 was 9.7 nM.
With `CCc1cccc(C2CCC3(C2)CN(C(=O)[C@H]2C[C@@](C)(O)C2)C3)c1` (mixture of isomers) [Example 91, (rac)-(6-(3-Ethylphenyl)-2-azaspiro[3.4]octan-2-yl)((1s,3s)-3-hydroxy-3-methylcyclobutyl)methanone] the IC50 was 58 nM.
Work on `Cc1c(OC2CC2)cccc1C1CCC2(CC1)CN(C(=O)[C@H]1C[C@@](C)(O)C1)C2` [Example 364, (7-(3-Cyclopropoxy-2-methylphenyl)-2-azaspiro[3.5]nonan-2-yl)((1s,3s)-3-hydroxy-3-methylcyclobutyl)methanone] yielded an IC50 of 2.9 nM.
Compound `COc1cc(C2CCC3(CC2)CN(C(=O)[C@H]2C[C@@](C)(O)C2)C3)cc(F)c1C` [Example 370, (7-(3-Fluoro-5-methoxy-4-methylphenyl)-2-azaspiro[3.5]nonan-2-yl)((1s,3s)-3-hydroxy-3-methylcyclobutyl)methanone] has an IC50 of 11 nM.
In the case of `Cc1cccc(F)c1C1CCC2(CC1)CN(C(=O)[C@H]1C[C@@](C)(O)C1)C2` [Example 356, (7-(2-Fluoro-6-methylphenyl)-2-azaspiro[3.5]nonan-2-yl)((1s,3s)-3-hydroxy-3-methylcyclobutyl)methanone], the IC50 is reported as 15 nM.
`CC(C)(C)n1ccc(C2CCC3(CC2)CN(C(=O)[C@H]2C[C@@](C)(O)C2)C3)n1` [Example 379, (7-(1-(tert-Butyl)-1H-pyrazol-3-yl)-2-azaspiro[3.5]nonan-2-yl)((1s,3s)-3-hydroxy-3-methylcyclobutyl)methanone] showed an IC50 of 56 nM.
With `Cn1ncc2ccc(CC3CC4(C3)CN(C(=O)[C@H]3C[C@@](C)(O)C3)C4)c(F)c21` [Example 305, (6-((7-Fluoro-1-methyl-1H-indazol-6-yl)methyl)-2-azaspiro[3.3]heptan-2-yl)((1s,3s)-3-hydroxy-3-methylcyclobutyl)methanone] the IC50 was 28 nM.
`C[C@]1(O)C[C@@H](C(=O)N2CC3(CC(Cc4ccccc4C4CC4)C3)C2)C1` [Example 271, (6-(2-Cyclopropylbenzyl)-2-azaspiro[3.3]heptan-2-yl)((1s,3s)-3-hydroxy-3-methylcyclobutyl)methanone] was tested, and the IC50 was 3.6 nM.
With `CC[C@]1(O)C[C@@H](C(=O)N2CC3(CCC(c4cccc(C(C)(C)C)c4)C3)C2)C1` (mixture of isomers) [Example 126, (rac)-(6-(3-(tert-Butyl)phenyl)-2-azaspiro[3.4]octan-2-yl)((1r,3s)-3-ethyl-3-hydroxycyclobutyl)methanone] the IC50 was 7.5 nM.
For `Cc1cn(C)c2nc(OC3CCC4(CC3)CN(C(=O)[C@H]3C[C@@](C)(O)C3)C4)ccc12` [Example 471, (7-((1,3-Dimethyl-1H-pyrrolo[2,3-b]pyridin-6-yl)oxy)-2-azaspiro[3.5]nonan-2-yl)((1s,3s)-3-hydroxy-3-methylcyclobutyl)methanone], the IC50 was 2 nM.
For `CC(C)c1c(CC2CC3(C2)CN(C(=O)[C@H]2C[C@@](C)(O)C2)C3)cccc1C(F)(F)F` [Example 210, ((1s,3s)-3-Hydroxy-3-methylcyclobutyl)(6-(2-isopropyl-3-(trifluoromethyl)benzyl)-2-azaspiro[3.3]heptan-2-yl)methanone], the IC50 was 0.8 nM.
For `Cc1cc(C(F)(F)F)c(C)nc1OC1CCC2(CC1)CN(C(=O)[C@H]1C[C@@](C)(O)C1)C2` [Example 466, (7-((3,6-Dimethyl-5-(trifluoromethyl)pyridin-2-yl)oxy)-2-azaspiro[3.5]nonan-2-yl)((1s,3s)-3-hydroxy-3-methylcyclobutyl)methanone], the IC50 was 0.1 nM.
`COc1cc(C2CCC3(CC2)CN(C(=O)[C@H]2C[C@@](C)(O)C2)C3)ccc1C` [Example 129, ((1s,3s)-3-Hydroxy-3-methylcyclobutyl)(7-(3-methoxy-4-methylphenyl)-2-azaspiro[3.5]nonan-2-yl)methanone] showed an IC50 of 25 nM.
`COc1cc(C)cc(C2CCC3(CC2)CN(C(=O)[C@H]2C[C@@](C)(O)C2)C3)c1` [Example 128, ((1s,3s)-3-Hydroxy-3-methylcyclobutyl)(7-(3-methoxy-5-methylphenyl)-2-azaspiro[3.5]nonan-2-yl)methanone] was tested, and the IC50 was 30 nM.
Compound `Cc1ccc(CC2CC3(C2)CN(C(=O)[C@H]2C[C@@](C)(O)C2)C3)cc1C` [Example 188, (6-(3,4-Dimethylbenzyl)-2-azaspiro[3.3]heptan-2-yl)((1s,3s)-3-hydroxy-3-methylcyclobutyl)methanone] has an IC50 of 4.3 nM.
With `Cn1ccc2ccc(OC3CCC4(CC3)CN(C(=O)[C@H]3C[C@@](C)(O)C3)C4)nc21` [Example 469, ((1s,3s)-3-Hydroxy-3-methylcyclobutyl)(7-((1-methyl-1H-pyrrolo[2,3-b]pyridin-6-yl)oxy)-2-azaspiro[3.5]nonan-2-yl)methanone] the IC50 was 18 nM.
`C[C@]1(O)C[C@@H](C(=O)N2CC3(CC(Cc4cccc(OC(F)F)c4)C3)C2)C1` [Example 157, (6-(3-(Difluoromethoxy)benzyl)-2-azaspiro[3.3]heptan-2-yl)((1s,3s)-3-hydroxy-3-methylcyclobutyl)methanone] gave an IC50 of 29 nM.
In the case of `Cc1ccc(F)cc1C1CCC2(CC1)CN(C(=O)[C@H]1C[C@@](C)(O)C1)C2` [Example 358, (7-(5-Fluoro-2-methylphenyl)-2-azaspiro[3.5]nonan-2-yl)((1s,3s)-3-hydroxy-3-methylcyclobutyl)methanone], the IC50 is reported as 29 nM.
In the case of `Cc1ccc(OC2CCC3(CC2)CN(C(=O)[C@H]2C[C@@](C)(O)C2)C3)cc1Cl` [Example 411, (7-(3-Chloro-4-methylphenoxy)-2-azaspiro[3.5]nonan-2-yl)((1s,3s)-3-hydroxy-3-methylcyclobutyl)methanone], the IC50 is reported as 9.1 nM.
For `Cc1cc([C@H]2CCC3(C2)CN(C(=O)[C@H]2C[C@@](C)(O)C2)C3)ccc1OC(F)F` (stereo in doubt) [Example 74, ((*S)-6-(4-(Difluoromethoxy)-3-methylphenyl)-2-azaspiro[3.4]octan-2-yl)((1s,3*R)-3-hydroxy-3-methylcyclobutyl)methanone], the IC50 was 6.8 nM.
In the case of `CCc1nc(OC2CCC3(CC2)CN(C(=O)[C@H]2C[C@@](C)(O)C2)C3)ccc1C(F)F` [Example 440, (7-((5-(Difluoromethyl)-6-ethylpyridin-2-yl)oxy)-2-azaspiro[3.5]nonan-2-yl)((1s,3s)-3-hydroxy-3-methylcyclobutyl)methanone], the IC50 is reported as 15 nM.
`Cc1ccc2ccn(CC3CC4(C3)CN(C(=O)[C@H]3C[C@@](C)(O)C3)C4)c2n1` [Example 288, ((1s,3s)-3-Hydroxy-3-methylcyclobutyl)(6-((6-methyl-1H-pyrrolo[2,3-b]pyridin-1-yl)methyl)-2-azaspiro[3.3]heptan-2-yl)methanone] gave an IC50 of 26 nM.
`C[C@]1(O)C[C@@H](C(=O)N2CC3(CCC(F)(c4ccccc4)CC3)C2)C1` [Example 340, (7-Fluoro-7-phenyl-2-azaspiro[3.5]nonan-2-yl)((1s,3s)-3-hydroxy-3-methylcyclobutyl)methanone] gave an IC50 of 288 nM.
Compound `CC(C)c1ccc(C2CC3(C2)CN(C(=O)[C@H]2C[C@@](C)(O)C2)C3)cc1` [Example 4, ((1s,3s)-3-Hydroxy-3-methylcyclobutyl)(6-(4-isopropylphenyl)-2-azaspiro[3.3]heptan-2-yl)methanone] has an IC50 of 128 nM.
Compound `CC(C)c1cccc(C2CCC3(C2)CN(C(=O)[C@H]2C[C@@](C)(O)C2)C3)c1` (mixture of isomers) [Example 46, (rac)-((1s,3s)-3-Hydroxy-3-methylcyclobutyl)(6-(3-isopropylphenyl)-2-azaspiro[3.4]octan-2-yl)methanone] has an IC50 of 13 nM.
`C[C@]1(O)C[C@@H](C(=O)N2CC3(CC(Cc4ccccn4)C3)C2)C1` [Example 167, ((1s,3s)-3-Hydroxy-3-methylcyclobutyl)(6-(pyridin-2-ylmethyl)-2-azaspiro[3.3]heptan-2-yl)methanone] gave an IC50 of 1390 nM.
Work on `Cc1nc(O[C@@H]2CCC3(C[C@H]2C)CN(C(=O)[C@H]2C[C@@](C)(O)C2)C3)ccc1C(F)(F)F` (stereo in doubt) [Example 445, ((1s,3*S)-3-Hydroxy-3-methylcyclobutyl)((6*R,7*R)-6-methyl-7-((6-methyl-5-(trifluoromethyl)pyridin-2-yl)oxy)-2-azaspiro[3.5]nonan-2-yl)methanone] yielded an IC50 of 33 nM.
